Measured values from US20160193316A1 (priority 1994, published 2016).
Where two headings read alike, the source gives them in different places. No end group written: not given here.

What was measured:
HLA-A*0101 = HLA-A*0101 (Homo sapiens, UniProt P04439, A114D/A174V/A182V/D101N/D185E/E176A/E190D/L180R/Q94H/R68K/S129P/T187R/V100A/V91M/W191G); assay type: binding
HLA-B*0702 = target: T1, HLA-B*0702 (Homo sapiens, UniProt P01889); assay: HLA class I peptide binding assay; conditions: Malaria B07 super motif peptides; binding value, no unit
T1 construct: endogenous in cells; host or cells: GM3107

T helper lymphocytes = conditions: regardless of HLA type, WO 95/07707; cited from earlier work
HLA-A*0301 = target: T2, HLA-A*0301 (Homo sapiens, UniProt P04439); assay: HLA class I peptide binding assay; conditions: Malaria A3 motif peptides, Table XVI; binding value to HLA-A*0301, unit not given
T2 construct: endogenous in cells; host or cells: GM3107

HLA-A*1101 = HLA-A*1101 (Homo sapiens, UniProt P04439, A114D/D185E/E176A/F33Y/L180Q/S129P/T187R); assay: HLA class I peptide binding assay
HLA-A*3101 = HLA-A*3101 (Homo sapiens, UniProt P04439, A270S/D185E/E176V/E277Q/F33T/G231S/G80R/H175R/I121M/I218V/I322F/K168Q/L300P/L318F/M331R/P217A/Q94H/R138Q/T323A/T345S/T97I/V358M); assay: HLA class I peptide binding assay
HLA-A*3301 = HLA-A*3301 (Homo sapiens, UniProt P04439, A270S/D185E/E176V/E277Q/E87N/F33T/G231S/H175R/I121M/I218V/I322F/K168Q/K210R/L300P/L318F/M331R/P217A/Q86R/Q94H/R138Q/T323A/T345S/T97I/V358M/Y195H); assay: HLA class I peptide binding assay
[1] = system: HLA-A3-supertype molecules (A3, A11, A*3101, A*3301, A*6801); assay type: binding, human
DRB1*0301 (DR3) = target: T3, DRB1*0301 (DR3) (Homo sapiens, UniProt P01903+P01911, A100K/A102G/A103R/A169T/F55Y/I96L/K41T/L162R/M171V/P40S/Q125H/Q178H/Q39Y/R42S/S66N/T106N/T262R/W38E/Y61H); assay: HLA class II peptide binding assay (pH 4.5)
T3 construct: endogenous in cells; host or cells: MAT

HLA-A*2402 = HLA-A*2402 (Homo sapiens, UniProt P04439, D101N/D140Y/D185E/E176V/E190D/F33S/G103R/G107R/I119L/I121M/I306V/K335N/L105A/L180Q/L300P/N151K/N90K/Q86E/Q94H/R106L/R138H/R89G/T104I/T345S/V100E/W191G/Y123F); assay: HLA class I peptide binding assay; conditions: unit not given
DRB1*0101 (DR1) = target: T4, DRB1*0101 (DR1) (Homo sapiens, UniProt P01903+P01911, A100R/D57E/F55L/F60I/F76Y/I96L/L162R/M171V/P40L/Q125E/R42F/V115G/Y59C); assay: HLA class II peptide binding assay; conditions: Table XIXb, Malaria Super Motif Peptides With Binding Data; DR1
T4 construct: endogenous in cells; host or cells: LG2

DRB1*0401 (DR4w4) = target: T5, DRB1*0401 (DR4w4) (Homo sapiens, UniProt P01903+P01911, A100K/A169T/F76Y/I96L/K127E/L162R/M171V/N62H/P40V/Q125Y/R42H/S133A/S149N/S66Y/V115G/V209L/W38E); assay: HLA class II peptide binding assay; conditions: Table XIXb; DR4w4
T5 construct: endogenous in cells; host or cells: Preiss

DRB1*0405 (DR4w15) = target: T6, DRB1*0405 (DR4w15) (Homo sapiens, UniProt P01903+P01911, A100R/A169T/D86S/F76Y/I96L/K127E/L162R/M171V/N62H/P40V/Q125Y/R42H/S133A/S149N/S66Y/V115G/V209L/W38E); assay: HLA class II peptide binding assay; conditions: Table XIXb; DR4w15
T6 construct: endogenous in cells; host or cells: KT3

DRB1*0701 (DR7) = target: T7, DRB1*0701 (DR7) (Homo sapiens, UniProt P01903+P01911, A100R/A102G/A103Q/D57E/D86V/E43K/F76Y/K127E/L162R/M171V/P40G/Q125H/Q99D/R33Q/R42Y/R54Q/S133A/S66F/T210M/V115G/Y107V/Y59L/Y89S); assay: biochemical; assay type: binding
T7 construct: endogenous in cells; host or cells: Pitout

DRB1*0802 (DR8w2) = target: T8, DRB1*0802 (DR8w2) (Homo sapiens, UniProt P01903+P01911, A100R/A103L/A169T/F76Y/H45Y/I96F/K41T/L162R/M171V/P40S/Q125H/Q178H/Q39Y/Q99D/R218S/R42G/S66Y/V115G/W38E); assay: biochemical; assay type: binding
T8 construct: endogenous in cells; host or cells: OLL

DRB1*0901 (DR9) = target: T9, DRB1*0901 (DR9) (Homo sapiens, UniProt P01903+P01911, A100R/A103E/D57H/D86V/F55Y/F60I/F76Y/I96F/K127E/L162R/M171V/P40D/Q125H/Q99R/R33Q/R42F/S133A/S66N/T210M/V115G/W38K/Y107V/Y59G/Y89S); assay: biochemical; assay type: binding
T9 construct: endogenous in cells; host or cells: HID

DRB1*1101 (DR5w11) = target: T10, DRB1*1101 (DR5w11) (Homo sapiens, UniProt P01903+P01911, A100R/A169T/A87E/I96F/K41T/L162R/M171V/P40S/Q125H/Q178H/Q39Y/Q99D/R42S/S66Y/T262R/V115G/W38E); assay: biochemical; assay type: binding
T10 construct: endogenous in cells; host or cells: Sweig

DRB1*1201 (DR5w12) = target: T11, DRB1*1201 (DR5w12) (Homo sapiens, UniProt P01903+P01911, A100R/A169T/D57E/D86V/F55L/H45Y/K41T/L162R/M171V/P40S/Q125H/Q178H/Q39Y/Q99D/R42G/S66L/T262R/V114A/V67L/W38E/Y59H/Y61H/Y89S); assay: HLA class II peptide binding assay; conditions: Table XIXb; DR5w12
T11 construct: endogenous in cells; host or cells: Herluf

DRB1*1302 (DR6w19) = target: T12, DRB1*1302 (DR6w19) (Homo sapiens, UniProt P01903+P01911, A100E/A169T/K41T/L162R/M171V/P40S/Q125H/Q178H/Q39Y/Q99D/R42S/S66N/T262R/V115G/W38E/Y61H); assay: HLA class II peptide binding assay; conditions: Table XIXb; DR6w19
T12 construct: endogenous in cells; host or cells: H0301

DRB1*1501 (DR2w2β1) = target: T13, DRB1*1501 (DR2w2β1) (Homo sapiens, UniProt P01903+P01911); assay: HLA class II peptide binding assay; conditions: Table XIXb; DR2w2β1
T13 construct: expressed in transfected cells; host or cells: L466.1 (fibroblasts)

DRB5*0101 (DR2w2β2) = target: T14, DRB5*0101 (DR2w2β2) (Homo sapiens, UniProt P01903+Q30154); assay type: binding
T14 construct: expressed in transfected cells; host or cells: L416.3 (fibroblasts) or GM3107

HPSDGKCNLY
A*0101 (binding information) (HLA-A*0101): 0.0260 | B*0702 (binding information) (HLA-B*0702): 0.0001

aKXVWANTLKAAa
Stimulation of T helper lymphocyte response (T helper lymphocytes): stimulate the response of T helper lymphocytes from most individuals

PSDGKCNLY
A*010I (HLA-A*0101): 0.5400 | A*0101 (binding information) (HLA-A*0101): 0.5400 | A*0301 (binding information) (HLA-A*0301): 0.0002 | A*1101 binding information (HLA-A*1101; Table XVII, malaria A11 motif peptides, binding value unit not given): 0.0002

FQDEENIGIY
A*0101 (binding information) (HLA-A*0101): 1.1000

FILVNLLIFH [Peptide 1167.46]
IC50 (HLA-A*1101): 1330 nM | IC50 (HLA-A*3101): 1960 nM | IC50 (HLA-A*3301): 397 nM | Alleles bound ([1]; A3-supermotif CTL epitopes, five A3-supertype alleles (Table XXVII)): 2 | Alleles bound ([1]; A3-supertype peptides tested for binding to A*03, A*11, A*31011, A*3301, A*6801): 2 | Alleles bound ([1]; A3-supertype, tested on A*03, A*11, A*31011, A*3301, A*6801, unfixed parent peptide): 2

LPSENERGY
A*0101 (binding information) (HLA-A*0101): 0.6700 | B*0702 (binding information) (HLA-B*0702): 0,0001 | DR3 binding information (DRB1*0301 (DR3); DR3a motif peptides, unit not given, exemplary 15-mer containing the core sequence): -0.0033

FYFILVNLL
HLA-A24 binding value (HLA-A*2402; HLA class I binding value as printed in column headed A*201 of Table X): 7.5000 | A*2401 (binding information, Malaria A24 motif peptides) (HLA-A*2402; HLA-A*2401 binding value as printed): 7.5000 | DR1 binding data (DRB1*0101 (DR1)): 0.0029 | DR3 binding data (DRB1*0301 (DR3); Table XIXb, DR3): -0.0008 | DR4w4 binding data (DRB1*0401 (DR4w4)): 0.0210 | DR4w15 binding data (DRB1*0405 (DR4w15)): -0.0009 | DR7 binding data (DRB1*0701 (DR7)): 0.0020 | DR8w2 binding data (DRB1*0802 (DR8w2)): 0.0010 | DR9 binding data (DRB1*0901 (DR9)): -0.0003 | DR5w11 binding data (DRB1*1101 (DR5w11)): 0.0011 | DR5w12 binding data (DRB1*1201 (DR5w12)): 0.0006 | DR6w19 binding data (DRB1*1302 (DR6w19)): 0.0003 | DR2w2β1 binding data (DRB1*1501 (DR2w2β1)): 0.0040 | DR2w2β2 binding data (DRB5*0101 (DR2w2β2)): 0.0044
